Patent publication US20110081675A1, “Metabolic Biomarkers Of Drug-Induced Cardiotoxicity” (WISCONSIN ALUMNI RESEARCH FOUNDATION, priority 2009, published 2011)

What was measured:
[1] = system: human cardiomyocytes
Procedure: The percentage of cell death, inherently and after drug treatment, was calculated by Trypan Blue staining (FIG. 2).
The doses for each compound were based upon published standards, equivalent to therapeutic circulating levels whenever possible (see Table 1).

[2] = system: human cardiomyocytes (Celprogen 36044-15at); assay: LC-ESI-TOF-MS metabolomics of extracellular media of drug-treated human cardiomyocytes (Tables 2A-2C); type: cell-based; conditions: for doxfold: 26uM Doxorubicin; for tamfold: 15uM tamoxifen
Procedure: Data for statistical analysis were extracted from chromatograms using the Agilent Mass Hunter software (Product No. G3297AA, Agilent Technologies, Inc., Santa Clara, Calif.); it will be understood that alternative statistical analysis methods can be used. Masses were binned together if they were within 10 ppm and eluted within a 2 minutes retention time window. A binned mass was considered to be the same molecule across different LC-ESI-TOF-MS analyses (referred to herein as an “exact mass,” which will be understood to be ±10 ppm). Binning of the data is required for statistical analysis and comparison of masses across the entire experiment. If multiple peaks with the same mass at the same retention time within a single sample were detected by Mass Hunter, they were averaged to assist data analysis. Masses lacking a natural isotopic distribution or with an absolute height of less than 1000 were removed from the data prior to analysis. It would be understood that the results from this assay provide relative values that are assessed according to annotated values within 10 ppm to provide an identity for the molecular weight detected. Thus, a mass shift within 10 ppm is considered consistent with determining the identity of a specific cellular metabolite previously annotated due to differences in ionization source and instrumentation, e.g. between different experiments or using different instruments.
As used herein, a mass was considered to be the same across LC/ESI-TOF-MS runs using a simple algorithm that first sorts the data by mass and retention time. […] If a series of measurements fit this definition it was considered to be from the same compound. If either the mass or the retention time varied by more than the limits listed above it was considered to be a different compound and given a new unique designation.
The data from the most reproducible mass features was log base 2 transformed and median centered prior to statistical analysis. […] To test the null hypothesis a one way permutation based t-test assuming a normal approximation of the conditional distribution was used and implement using the Conditional Inference Procedures in a Permutation Test Framework (Coin) library, a contributed package of programming code. Statistics tests were performed without replacement of missing values decrease the degrees of freedom rather than imputing missing values. […] False discovery rates (FDR) were controlled using the Q value estimator (Storey et al., 2003, Proc Natl Acad. Sci., 100:9440-5) and implemented using the qvalue library in R (Dabney et al., 2003, qvalue: Q-value estimation for false discovery rate control. R package version 1.10.0., www.CRAN.R-project.org).
The extracellular media from treated and untreated cells was processed as described in Cezar et al., (2007, Stem Cells Development 16: 869-882, this publication is incorporated by reference), for extraction of low molecular weight molecules (<3 kD) for metabolomics analysis. Extracellular low molecular weight molecule preparations were separated by liquid chromatography followed by electrospray ionization time of flight (LC-ESI-TOF-MS) mass spectrometry for ionization and detection of the full spectra of low molecular weight molecules present in each sample. More specifically, the samples were separated using the ESI_Luna_HILIC—95_t—06OACN—16 min method (HILIC chromatography). Statistical differences were inferred by subsequent bioinformatics and in silico mapping of deisotoped ESI-TOF-MS mass features as described below (also provided in Cezar et al. (2007, id.)).
Briefly, ionization (100 m/z-1500 m/z) was acquired on an Agilent 6520 Accurate-Mass Q-TOF in extended dynamic range and positive mode. Mass features were generated using two independent methods. First MassHunter Qualitative Analysis was used to generate mass features using the Molecular Feature Extraction algorithm (MFE).

[3] = feature cpdID 36, neutral mass 101.1204, RT 0.720145, Triethylamine or Hexylamine
[4] = feature cpdID 8902, neutral mass 276.1256, RT 8.733378, no hit
[5] = feature cpdID 11232, neutral mass 311.1029, RT 7.400847, p-Glucosyloxymandelonitrile or (S)-4-Hydroxymandelonitrile beta-D-glucoside
[6] = feature cpdID 14190, neutral mass 356.253, RT 1.103957, HMDB04239, 13,14-dihydro PGE1 or Prostaglandin F1alpha
[7] = feature cpdID 16504, neutral mass 393.0913, RT 7.25538, no hit
[8] = feature cpdID 16939, neutral mass 400.2796, RT 1.108613, 7-Ketocholesterol
[9] = feature cpdID 17096, neutral mass 403.1776, RT 6.2306, no hit
[10] = feature cpdID 19500, neutral mass 444.3034, RT 1.106333, […]-Dihydroxyvitamin D3-26,23-lactone
[11] = feature cpdID 19704, neutral mass 448.1344, RT 7.184483, no hit
[12] = feature cpdID 21926, neutral mass 488.3323, RT 1.106573, no hit
[13] = feature cpdID 23163, neutral mass 516.1241, RT 7.217222, Formononetin 7-O-glucoside-6″-O-malonate, Isochlorogenic acid b or 13-Dicaffeoylquinic acid
[14] = feature cpdID 24142, neutral mass 538.2779, RT 0.783395, no hit
[15] = feature cpdID 25561, neutral mass 575.2051, RT 7.271724, no hit
[16] = feature cpdID 25601, neutral mass 576.3861, RT 1.10751, 3-Hexaprenyl-4-hydroxy-5-methoxybenzoic acid
[17] = feature cpdID 27363, neutral mass 620.4117, RT 1.108317, no hit
[18] = feature cpdID 28720, neutral mass 661.1924, RT 6.495524, no hit
[19] = feature cpdID 29101, neutral mass 672.1828, RT 6.528464, no hit
[20] = feature cpdID 29227, neutral mass 676.1781, RT 1.298314, no hit
[21] = feature cpdID 31637, neutral mass 744.1091, RT 1.26415, no hit
[22] = feature cpdID 33162, neutral mass 791.2316, RT 6.496594, no hit
[23] = feature cpdID 37905, neutral mass 932.2608, RT 6.542554, no hit
[24] = feature cpdID 37938, neutral mass 933.3726, RT 8.330596, no hit
[25] = feature cpdID 42137, neutral mass 1122.172, RT 1.256606, no hit
[26] = feature cpdID 45209, neutral mass 1300.402, RT 6.501484, no hit
[27] = feature cpdID 45486, neutral mass 1322.385, RT 6.518707, no hit

SMILES: COc1cccc2c1C(=O)c1c(O)c3c(c(O)c1C2=O)C[C@@](O)(C(=O)CO)C[C@@H]3O[C@H]1C[C@H](N)[C@H](O)[C@H](C)O1 [Doxorubicin]
- cell death (in words) [1]: significantly higher cell death
- doxfold [2, 3]: −1.186 fold
- doxfold [2, 4]: 2.438 fold
- doxfold [2, 5]: 5.193 fold
- doxfold [2, 6]: 12.32 fold
- doxfold [2, 7]: 1.09 fold
- doxfold [2, 8]: 11.7 fold
- doxfold [2, 9]: −2.02 fold
- doxfold [2, 10]: 16.24 fold
- doxfold [2, 11]: 2.122 fold
- doxfold [2, 12]: 7.799 fold
- doxfold ([2]; feature cpdID 23129, neutral mass 515.181, RT 10.44297, no hit): 1.178 fold
- doxfold [2, 13]: 2.198 fold
- doxfold [2, 14]: 1.559 fold
- doxfold ([2]; feature cpdID 25445, neutral mass 572.1055, RT 7.089848, no hit): 1.199 fold
- doxfold [2, 15]: 2.11 fold
- doxfold [2, 16]: 4.776 fold
- doxfold [2, 17]: 2.836 fold
- doxfold [2, 18]: 1.096 fold
- doxfold [2, 19]: 2.172 fold
- doxfold ([2]; feature cpdID 29124, neutral mass 672.6836, RT 6.559082, no hit): 1.282 fold
- doxfold [2, 20]: −6.816 fold
- doxfold [2, 21]: −1.423 fold
- doxfold [2, 22]: 1.817 fold
- doxfold [2, 23]: 1.663 fold
- doxfold ([2]; feature cpdID 37922, neutral mass 932.7613, RT 6.562271, no hit): 1.324 fold
- doxfold [2, 24]: 1.117 fold
- doxfold ([2]; feature cpdID 40510, neutral mass 1040.322, RT 6.499979, no hit): 1.351 fold
- doxfold [2, 25]: −3.594 fold
- doxfold [2, 26]: 1.838 fold
- doxfold [2, 27]: 1.667 fold

SMILES: CC/C(=C(\c1ccccc1)c1ccc(OCCN(C)C)cc1)c1ccccc1 [Tamoxifen]
- tamfold [2, 3]: 1.889 fold
- tamfold [2, 4]: 2.064 fold
- tamfold [2, 5]: 1.708 fold
- tamfold [2, 6]: 11.4 fold
- tamfold ([2]; feature cpdID 15112, neutral mass 372.0557, RT […], no hit): −1.266 fold
- tamfold [2, 7]: 1.21 fold
- tamfold [2, 8]: 10.16 fold
- tamfold [2, 9]: −1.832 fold
- tamfold [2, 10]: 15.8 fold
- tamfold [2, 11]: 1.975 fold
- tamfold [2, 12]: 7.564 fold
- tamfold [2, 13]: 1.75 fold
- tamfold [2, 14]: 2.706 fold
- tamfold [2, 15]: −1.008 fold
- tamfold [2, 16]: 5.478 fold
- tamfold [2, 17]: 3.46 fold
- tamfold [2, 18]: 1.185 fold
- tamfold [2, 19]: 2.364 fold
- tamfold [2, 20]: −1.514 fold
- tamfold [2, 21]: 1.02 fold
- tamfold [2, 22]: 1.968 fold
- tamfold [2, 23]: 1.8 fold
- tamfold [2, 24]: 1.939 fold
- tamfold [2, 25]: −1.752 fold
- tamfold [2, 26]: 1.731 fold
- tamfold [2, 27]: 1.765 fold
